Measured values reported in PubChem BioAssay (NCI).
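Compound exposure: 48 hours, 5 concentrations, 96-well plates. Abbreviation: GI50, concentration required for 50% inhibition of growth. TGI denotes the concentration required for complete inhibition of growth.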

How the values were obtained:
Experiment in all cases: NCI tumour cell line growth inhibition, 48 h
SF-268 CNS = system: SF-268 CNS
RPMI-8226 leukemia = system: RPMI-8226 leukemia
COLO 205 colon = system: COLO 205 colon
HCC-2998 colon = system: HCC-2998 colon
NCI/ADR-RES ovarian = system: NCI/ADR-RES ovarian
T-47D breast = system: T-47D breast
786-0 renal = system: 786-0 renal
HL-60(TB) leukemia = system: HL-60(TB) leukemia
MALME-3M melanoma = system: MALME-3M melanoma
SK-OV-3 ovarian = system: SK-OV-3 ovarian
ACHN renal = system: ACHN renal
SNB-75 CNS = system: SNB-75 CNS
SF-295 CNS = system: SF-295 CNS
SN12C renal = system: SN12C renal
MCF7 breast = system: MCF7 breast
K-562 leukemia = system: K-562 leukemia
BT-549 breast = system: BT-549 breast
SR leukemia = system: SR leukemia
PC-3 prostate = system: PC-3 prostate
SW-620 colon = system: SW-620 colon
DU-145 prostate = system: DU-145 prostate
LOX IMVI melanoma = system: LOX IMVI melanoma
HS 578T breast = system: HS 578T breast
SK-MEL-5 melanoma = system: SK-MEL-5 melanoma
HT29 colon = system: HT29 colon
SNB-19 CNS = system: SNB-19 CNS
OVCAR-4 ovarian = system: OVCAR-4 ovarian
NCI-H522 lung = system: NCI-H522 lung
UACC-257 melanoma = system: UACC-257 melanoma
RXF 393 renal = system: RXF 393 renal
EKVX NSCLC = system: EKVX NSCLC
A498 renal = system: A498 renal
OVCAR-3 ovarian = system: OVCAR-3 ovarian
MOLT-4 leukemia = system: MOLT-4 leukemia
HCT-116 colon = system: HCT-116 colon
MDA-MB-231 breast = system: MDA-MB-231 breast
NCI-H460 lung = system: NCI-H460 lung
IGROV1 ovarian = system: IGROV1 ovarian
SF-539 CNS = system: SF-539 CNS
KM12 colon = system: KM12 colon
MDA-MB-435 = system: MDA-MB-435
NCI-H226 lung = system: NCI-H226 lung
UACC-62 melanoma = system: UACC-62 melanoma
CAKI-1 renal = system: CAKI-1 renal
SK-MEL-2 melanoma = system: SK-MEL-2 melanoma
U251 CNS = system: U251 CNS
HCT-15 colon = system: HCT-15 colon
M14 melanoma = system: M14 melanoma
OVCAR-5 ovarian = system: OVCAR-5 ovarian
SK-MEL-28 melanoma = system: SK-MEL-28 melanoma
HOP-62 NSCLC = system: HOP-62 NSCLC
CCRF-CEM leukemia = system: CCRF-CEM leukemia
NCI-H23 lung = system: NCI-H23 lung
HOP-92 NSCLC = system: HOP-92 NSCLC
A549 NSCLC = system: A549 NSCLC
OVCAR-8 ovarian = system: OVCAR-8 ovarian
TK-10 renal = system: TK-10 renal

## O=C(N[C@H](c1ccc(Cl)c(Cl)c1)C1CNC1)c1ccc2cnccc2c1
SF-268 CNS
  GI50: 2.56 µM
  TGI: 15.6 µM
RPMI-8226 leukemia
  GI50: 3.9 µM
  TGI: 14.1 µM
COLO 205 colon
  GI50: 2.96 µM
  TGI: 11.5 µM
HCC-2998 colon
  GI50: 2.06 µM
  TGI: 6.06 µM
NCI/ADR-RES ovarian
  GI50: 15.6 µM
  TGI: 30.2 µM
T-47D breast
  GI50: 2.29 µM
  TGI: 13.5 µM
786-0 renal
  GI50: 1.78 µM
  TGI: 11.5 µM
HL-60(TB) leukemia
  GI50: 2.83 µM
  TGI: 12.8 µM
MALME-3M melanoma
  GI50: 3.06 µM
  TGI: 14.6 µM
SK-OV-3 ovarian
  GI50: 3.26 µM
  TGI: 13.1 µM
ACHN renal
  GI50: 6.11 µM
  TGI: 18.9 µM
SNB-75 CNS
  GI50: 0.405 µM
  TGI: 3.68 µM
SF-295 CNS
  GI50: 3.04 µM
  TGI: 14.5 µM
SN12C renal
  GI50: 2.76 µM
  TGI: 15.7 µM
MCF7 breast
  GI50: 3.25 µM
  TGI: 13.9 µM
K-562 leukemia
  GI50: 3.37 µM
  TGI: 14 µM
BT-549 breast
  GI50: 2.64 µM
  TGI: 12 µM
SR leukemia
  GI50: 2.11 µM
  TGI: 10.8 µM
PC-3 prostate
  GI50: 3.48 µM
  TGI: 16.1 µM
SW-620 colon
  GI50: 2.57 µM
  TGI: 15.2 µM
DU-145 prostate
  GI50: 8.52 µM
  TGI: 21 µM
LOX IMVI melanoma
  GI50: 3.42 µM
  TGI: 13.9 µM
HS 578T breast
  GI50: 1 µM
  TGI: 4.71 µM
SK-MEL-5 melanoma
  GI50: 11.1 µM
  TGI: 23.2 µM
HT29 colon
  GI50: 3.24 µM
  TGI: 14.4 µM
SNB-19 CNS
  GI50: 8.9 µM
  TGI: 21.5 µM
OVCAR-4 ovarian
  GI50: 5.68 µM
  TGI: 19.4 µM
NCI-H522 lung
  GI50: 12.9 µM
  TGI: 26.5 µM
UACC-257 melanoma
  GI50: 5.18 µM
  TGI: 18.6 µM
RXF 393 renal
  GI50: 0.68 µM
  TGI: 3.74 µM
EKVX NSCLC
  GI50: 3.15 µM
  TGI: 16.4 µM
A498 renal
  GI50: 1.78 µM
  TGI: 10.5 µM
OVCAR-3 ovarian
  GI50: 11.5 µM
  TGI: 23.9 µM
MOLT-4 leukemia
  GI50: 1.41 µM
  TGI: 5.67 µM
HCT-116 colon
  GI50: 3.23 µM
  TGI: 13.2 µM
MDA-MB-231 breast
  GI50: 3.36 µM
  TGI: 15 µM
NCI-H460 lung
  GI50: 2.68 µM
  TGI: 15.4 µM
IGROV1 ovarian
  GI50: 1.93 µM
  TGI: 10.6 µM
SF-539 CNS
  GI50: 1.71 µM
  TGI: 11.3 µM
KM12 colon
  GI50: 2.34 µM
  TGI: 11.9 µM
MDA-MB-435
  GI50: 2.84 µM
  TGI: 11.8 µM
NCI-H226 lung
  GI50: 4.3 µM
  TGI: 19.7 µM
UACC-62 melanoma
  GI50: 5.39 µM
  TGI: 19.1 µM
CAKI-1 renal
  GI50: 1.84 µM
  TGI: 10.7 µM
SK-MEL-2 melanoma
  GI50: 10.2 µM
  TGI: 22.4 µM
U251 CNS
  GI50: 4.62 µM
  TGI: 17.8 µM
HCT-15 colon
  GI50: 5.02 µM
  TGI: 18.3 µM
M14 melanoma
  GI50: 4.18 µM
  TGI: 16.7 µM
OVCAR-5 ovarian
  GI50: 2.94 µM
  TGI: 16.7 µM
SK-MEL-28 melanoma
  GI50: 5.5 µM
  TGI: 18.6 µM
HOP-62 NSCLC
  GI50: 4.34 µM
  TGI: 16.7 µM
CCRF-CEM leukemia
  GI50: 2.74 µM
  TGI: 13.6 µM
NCI-H23 lung
  GI50: 5.83 µM
  TGI: 19.6 µM
HOP-92 NSCLC
  GI50: 0.966 µM
  TGI: 5.91 µM
A549 NSCLC
  GI50: 3.29 µM
  TGI: 16.5 µM
OVCAR-8 ovarian
  GI50: 10.4 µM
  TGI: 23 µM
TK-10 renal
  GI50: 1.73 µM
  TGI: 10.7 µM
